{"source": "patent US20250248970A1", "about": "“NOVEL SUBSTITUTED FLUORINATED N-PROPYL-PYRROLIDINE COMPOUNDS, PROCESSES FOR THEIR PREPARATION AND THERAPEUTIC USES THEREOF” (SANOFI, priority 2022, published 2025)", "key": {"[1]": {"target": "T1, ERα (Homo sapiens, UniProt P03372)", "T1 construct": "host or cells: MCF7", "T1 sequence (P03372 1-595)": "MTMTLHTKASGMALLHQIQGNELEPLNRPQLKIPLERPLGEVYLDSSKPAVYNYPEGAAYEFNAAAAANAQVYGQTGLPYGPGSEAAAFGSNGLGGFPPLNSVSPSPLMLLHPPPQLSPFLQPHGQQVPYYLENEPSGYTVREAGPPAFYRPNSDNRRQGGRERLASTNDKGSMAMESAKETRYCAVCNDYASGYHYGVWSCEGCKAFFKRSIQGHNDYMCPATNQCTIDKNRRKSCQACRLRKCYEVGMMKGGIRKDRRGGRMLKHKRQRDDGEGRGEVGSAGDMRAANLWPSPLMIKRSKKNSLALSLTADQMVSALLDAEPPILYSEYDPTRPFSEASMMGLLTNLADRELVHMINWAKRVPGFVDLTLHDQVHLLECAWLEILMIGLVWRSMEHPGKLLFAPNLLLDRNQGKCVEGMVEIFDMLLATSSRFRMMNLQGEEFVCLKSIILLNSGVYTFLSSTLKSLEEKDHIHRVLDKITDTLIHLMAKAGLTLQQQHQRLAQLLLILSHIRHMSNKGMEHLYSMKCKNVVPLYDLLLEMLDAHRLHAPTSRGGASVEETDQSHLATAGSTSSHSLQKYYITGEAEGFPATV", "assay": "Estrogen receptor degradation activity (breast cancer cell ERα in cell western assay)", "format": "cell-based", "settings": "MCF7 cells; for % Degradation At 0.3 μM: 4 hours, % of ERα levels decrease relative to fulvestrant", "how_it_was_run": "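MCF7 cells in phenol red-free MEM alpha with 5% charcoal-stripped FBS were exposed for 4 h to 9-point 1:5 dilutions (0.3–0.0000018 μM final). In-cell western: anti-ERα immunofluorescence normalized to Syto-64 DNA stain, scaled between DMSO and 0.1 μM fulvestrant; IC50 as 50% ERα degradation, in nM.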"}, "[2]": {"test_system": "CYP3A4", "assay": "CYP3A4 induction potential for ADME profile evaluation (CYP3A4 mRNA by RT-PCR in primary human hepatocytes)", "format": "in vitro ADME", "settings": "for CYP3A4 induction Emax (%): approximately 48 hours, 0.3-10 μM, relative to 10 μM rifampicin", "description": "Such test is based, for example, on the quantification of CYP3A4 mRNA induction performed by RT-PCR analysis. Said % Emax may be calculated as detailed in the illustrative part under the following formula:\n[formula] • ECompound: relative fold mRNA expression following treatment with test compound, • EPositive control: relative fold mRNA expression following reference inducer i.e., 10 μM rifampicin, • EVehicle control: relative fold mRNA expression following vehicle treatment i.e., 0.1% DMSO, and • E is the efficiency of the quantitative PCR.\nSaid test evaluates the potential induction effect of the tested compounds on CYP3A4 gene expression in primary cultures of human hepatocytes from one or two donors with established concentration-dependent response to the reference inducer, rifampicin.\nBefore seeding, cell viability was estimated using the Trypan blue dye exclusion test. Hepatocytes were seeded on collagen I-coated 96-well plates at a density of 70 000 cells/well in 100 μL of plating medium for at least 4 hours under a humidified atmosphere of CO2/air (5%/95%), at 37° C. After the cell attachment period, the plating medium was removed, and the hepatocytes were treated daily for 2 consecutive days (approximately 48 hours), with 100 μL per well of fresh culture medium containing either the vehicle control (0.1% DMSO) or the investigated compounds at four concentrations 0.3, 1, 3 and 10 μM, or rifampicin, the reference inducer at 10 μM. All incubations were performed in duplicates.\nTen mM stock solutions of the different compounds were diluted to obtain 0.3, 1 and 3 mM daughter solutions. The day of the experiment, stock solutions were diluted 1000-fold in the incubation/culture medium to achieve final concentrations of 0.3, 1, 3 and 10 μM.\nAfter the 48-hour incubation period with the test compounds, the cell culture medium was removed, and the cells were lysed to release the RNA for CYP3A4 gene expression assessment. Quantification of CYP3A4 mRNA induction was performed by RT-PCR analysis.\nTotal RNA was extracted from hepatocytes using the King Fisher™ Flex Purification System with the MagMAX mirVana Total RNA Isolation kit (Thermo Fisher Scientific, USA). RNA was quantified by fluorimetry using the Quantifluor RNA System (Promega, USA) and cDNAs were synthesized from […] total RNA using the iScript Reverse Transcription Supermix for RT-qPCR from Biorad (France) at 42° C. for 30 min. cDNA samples were then diluted in water (1:5) and 5 μL of each sample was used for real-time PCR amplification by using the SYBR Green kit from Biorad (France). The following program was used: a denaturation step at 95° C. for 30 sec, and 40 cycles of PCR (denaturation, 95° C., 10 sec and annealing and extension, 58° C., 1 min). In all cases, the quality of the PCR product was assessed by monitoring a fusion step at the end of the run. Human forward and reverse primer sequences used were: 5′-CCT-GGC-ACC-CAG-CAC-AAT-3′ and 5′-GGG-CCG GAC-TCG-TCA-TAC-3′ for actin, 5′-CAC-AAA-CG-GAG-GCC-TTT-TG-3′ and 5′-ATC-CAT-GCT-GTA-GGC-CCC-AA-3′ for CYP3A4.\nCq (quantification cycle) values were determined using a multi-variable, non-linear regression model to individual well traces and then using this model an optimal Cq value was computed. Cq values are inversely proportional to the amount of target nucleic acid in the sample (i.e., lowest Cq level corresponds to the greatest amount of target nucleic acid in the sample). Cq of reference gene (in this study human actin) was also used as positive control of quantitative PCR.\nThe extent of induction or % of Emax, resulting from treatment with test compounds was calculated under the following formula: […]"}}}
{"smiles": "Cl.O=C(O)c1ccc2c(c1)CCCC(c1ccc(F)cc1C(F)(F)F)=C2c1ccc(CC2CCN(CCC(F)F)C2)cc1", "note": "(single isomer, unassigned; isomer 1) [Compound 5, 9-(4-((1-(3,3-difluoropropyl)pyrrolidin-3-yl)methyl)phenyl)-8-(4-fluoro-2-(trifluoromethyl)phenyl)-6,7-dihydro-5H-benzo[7]annulene-3-carboxylic acid hydrochloride, Isomer 1]", "values": [{"measurement": "% Degradation At 0.3 μM", "setting": "[1]", "value": 80, "unit": "%"}, {"measurement": "CYP3A4 induction Emax (%)", "setting": "[2]", "value": 13, "unit": "%"}]}
{"smiles": "Cl.O=C(O)c1ccc2c(c1)CCCC(c1cccc(F)c1Cl)=C2c1ccc(CC2CCN(CCCF)C2)cc1", "note": "(single isomer, unassigned; isomer 1) [Compound 21, 8-(2-chloro-3-fluorophenyl)-9-(4-((1-(3-fluoropropyl)pyrrolidin-3-yl)methyl)phenyl)-6,7-dihydro-5H-benzo[7]annulene-3-carboxylic acid hydrochloride, Isomer 1]", "values": [{"measurement": "% Degradation At 0.3 μM", "setting": "[1]", "value": 87, "unit": "%"}, {"measurement": "CYP3A4 induction Emax (%)", "setting": "[2]", "value": 42, "unit": "%"}]}
{"smiles": "Cc1cccc(C2=C(c3ccc(CC4CCN(CCCF)C4)cc3)c3ccc(C(=O)O)cc3CCC2)c1C(F)(F)F", "note": "(single isomer, unassigned; isomer 1) [Compound 30, 9-(4-((1-(3-fluoropropyl)pyrrolidin-3-yl)methyl)phenyl)-8-(3-methyl-2-(trifluoromethyl)phenyl)-6,7-dihydro-5H-benzo[7]annulene-3-carboxylic acid, Isomer 1]", "values": [{"measurement": "% Degradation At 0.3 μM", "setting": "[1]", "value": 85, "unit": "%"}, {"measurement": "CYP3A4 induction Emax (%)", "setting": "[2]", "value": 15, "unit": "%"}]}
{"smiles": "CC1(C)CC=C(C2=C(c3ccc(CC4CCN(CCCF)C4)cc3)c3ccc(C(=O)O)cc3CCC2)CC1.Cl", "note": "(single isomer, unassigned; isomer 1) [Compound 11, 8-(4,4-dimethylcyclohex-1-en-1-yl)-9-(4-((1-(3-fluoropropyl)pyrrolidin-3-yl)methyl)phenyl)-6,7-dihydro-5H-benzo[7]annulene-3-carboxylic acid hydrochloride, Isomer 1]", "values": [{"measurement": "% Degradation At 0.3 μM", "setting": "[1]", "value": 90, "unit": "%"}, {"measurement": "CYP3A4 induction Emax (%)", "setting": "[2]", "value": 11, "unit": "%"}]}
{"smiles": "Cc1cc(F)ccc1C1=C(c2ccc(CC3CCN(CCC(F)F)C3)cc2)c2ccc(C(=O)O)cc2CCC1.Cl", "note": "(single isomer, unassigned; isomer 1) [Compound 4, 9-(4-((1-(3,3-difluoropropyl)pyrrolidin-3-yl)methyl)phenyl)-8-(4-fluoro-2-methylphenyl)-6,7-dihydro-5H-benzo[7]annulene-3-carboxylic acid hydrochloride, Isomer 1]", "values": [{"measurement": "% Degradation At 0.3 μM", "setting": "[1]", "value": 83, "unit": "%"}, {"measurement": "CYP3A4 induction Emax (%)", "setting": "[2]", "value": 30, "unit": "%"}]}
{"smiles": "O=C(O)c1ccc2c(c1)CCCC(c1ccc(Cl)cc1Cl)=C2c1ccc(N[C@H]2CCN(CCCF)C2)cc1", "note": "[Compound C2, (S)-8-(2,4-Dichlorophenyl)-9-(4-((1-(3-fluoropropyl)pyrrolidin-3-yl)amino)phenyl)-6,7-dihydro-5H-benzo[7]annulene-3-carboxylic acid, reference compound]", "values": [{"measurement": "% Degradation At 0.3 μM", "setting": "[1]", "value": 89, "unit": "%"}, {"measurement": "degradation activity on estrogen receptors (in words)", "setting": "[1]; tested at 0.3 μM", "value": "significant degradation activity"}, {"measurement": "CYP3A4 induction Emax (%)", "setting": "[2]", "value": 85, "unit": "%"}]}
{"smiles": "O=C(O)c1ccc2c(c1)CCCC(c1cccc(Cl)c1F)=C2c1ccc(CC2CCN(CCCF)C2)cc1", "note": "(single isomer, unassigned; isomer 1) [Compound 16, 8-(3-chloro-2-fluorophenyl)-9-(4-((1-(3-fluoropropyl)pyrrolidin-3-yl)methyl)phenyl)-6,7-dihydro-5H-benzo[7]annulene-3-carboxylic acid, Isomer 1]", "values": [{"measurement": "% Degradation At 0.3 μM", "setting": "[1]", "value": 88, "unit": "%"}, {"measurement": "CYP3A4 induction Emax (%)", "setting": "[2]", "value": 22, "unit": "%"}]}
{"smiles": "Cl.O=C(O)c1ccc2c(c1)CCCC(c1ccc(F)cc1Cl)=C2c1ccc(CC2CCN(CCCF)C2)cc1", "note": "(single isomer, unassigned; isomer 1) [Compound 2, 8-(2-chloro-4-fluorophenyl)-9-(4-((1-(3-fluoropropyl)pyrrolidin-3-yl)methyl)phenyl)-6,7-dihydro-5H-benzo[7]annulene-3-carboxylic acid hydrochloride, Isomer 1]", "values": [{"measurement": "% Degradation At 0.3 μM", "setting": "[1]", "value": 74, "unit": "%"}, {"measurement": "CYP3A4 induction Emax (%)", "setting": "[2]", "value": 23, "unit": "%"}]}
{"smiles": "Cl.O=C(O)c1ccc2c(c1)CCCC(c1cccc(Cl)c1C(F)(F)F)=C2c1ccc(CC2CCN(CCCF)C2)cc1", "note": "(single isomer, unassigned; isomer 1) [Compound 13, 8-(3-chloro-2-(trifluoromethyl)phenyl)-9-(4-((1-(3-fluoropropyl)pyrrolidin-3-yl)methyl)phenyl)-6,7-dihydro-5H-benzo[7]annulene-3-carboxylic acid hydrochloride, Isomer 1]", "values": [{"measurement": "% Degradation At 0.3 μM", "setting": "[1]", "value": 90, "unit": "%"}, {"measurement": "CYP3A4 induction Emax (%)", "setting": "[2]", "value": 26, "unit": "%"}]}
{"smiles": "Cc1c(Cl)cccc1C1=C(c2ccc(CC3CCN(CCC(F)F)C3)cc2)c2ccc(C(=O)O)cc2CCC1.Cl", "note": "(single isomer, unassigned; isomer 1) [Compound 6, 8-(3-chloro-2-methylphenyl)-9-(4-((1-(3,3-difluoropropyl)pyrrolidin-3-yl)methyl)phenyl)-6,7-dihydro-5H-benzo[7]annulene-3-carboxylic acid hydrochloride, Isomer 1]", "values": [{"measurement": "% Degradation At 0.3 μM", "setting": "[1]", "value": 81, "unit": "%"}, {"measurement": "CYP3A4 induction Emax (%)", "setting": "[2]", "value": 8, "unit": "%"}]}
{"smiles": "O=C(O)c1ccc2c(c1)CCCC(c1ccc(Cl)cc1Cl)=C2c1ccc(C[C@H]2CCN(CCCF)C2)cc1", "note": "[Compound 1, 8-(2,4-dichlorophenyl)-9-(4-((1-(3-fluoropropyl)pyrrolidin-3-yl)methyl)phenyl)-6,7-dihydro-5H-benzo[7]annulene-3-carboxylic acid, (S) Isomer]", "values": [{"measurement": "% Degradation At 0.3 μM", "setting": "[1]", "value": 85, "unit": "%"}, {"measurement": "CYP3A4 induction Emax (%)", "setting": "[2]", "value": 7, "unit": "%"}, {"measurement": "CYP3A4 induction (in words)", "setting": "[2]; rating based on % Emax relative to rifampicin", "value": "no CYP3A4 induction"}]}
{"smiles": "CC1(C)CCC(C2=C(c3ccc(CC4CCN(CCCF)C4)cc3)c3ccc(C(=O)O)cc3CCC2)CC1.Cl", "note": "(single isomer, unassigned; isomer 1) [Compound 3, 8-(4,4-dimethylcyclohexyl)-9-(4-((1-(3-fluoropropyl)pyrrolidin-3-yl)methyl)phenyl)-6,7-dihydro-5H-benzo[7]annulene-3-carboxylic acid, Isomer 1]", "values": [{"measurement": "% Degradation At 0.3 μM", "setting": "[1]", "value": 85, "unit": "%"}, {"measurement": "CYP3A4 induction Emax (%)", "setting": "[2]", "value": 8, "unit": "%"}]}
{"smiles": "O=C(O)c1ccc2c(c1)CCCC(c1ccc(Cl)cc1Cl)=C2c1ccc(O[C@H]2CCN(CCCF)C2)cc1", "note": "[(C1), reference compound]", "values": [{"measurement": "CYP3A4 induction Emax (%)", "setting": "[2]", "value": 93, "unit": "%"}]}
